Assay results from patent US9365583B2, “Substituted pyrazoles and uses thereof” (Genentech, Inc., priority 2013, dated 2016).

Target: T1, N-terminally GST-tagged DLK (catalytic domain amino acid 1-520) (Homo sapiens, UniProt Q12852)
T1 construct: N-terminally GST-tagged DLK (catalytic domain amino acid 1-520); purchased Carna Bioscience
T1 sequence (Q12852 1-520): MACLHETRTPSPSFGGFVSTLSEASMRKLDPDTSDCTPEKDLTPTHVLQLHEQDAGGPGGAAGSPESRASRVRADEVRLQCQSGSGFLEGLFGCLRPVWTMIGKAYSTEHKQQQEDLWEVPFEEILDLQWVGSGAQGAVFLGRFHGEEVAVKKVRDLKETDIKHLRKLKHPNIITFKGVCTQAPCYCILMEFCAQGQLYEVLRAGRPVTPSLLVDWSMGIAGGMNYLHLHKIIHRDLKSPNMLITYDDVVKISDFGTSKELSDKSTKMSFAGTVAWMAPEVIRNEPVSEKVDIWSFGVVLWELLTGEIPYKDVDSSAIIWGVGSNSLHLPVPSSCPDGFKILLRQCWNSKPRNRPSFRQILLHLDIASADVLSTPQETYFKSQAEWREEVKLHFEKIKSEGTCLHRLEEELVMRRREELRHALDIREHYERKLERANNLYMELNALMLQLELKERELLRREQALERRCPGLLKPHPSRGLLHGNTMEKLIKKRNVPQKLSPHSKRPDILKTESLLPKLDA
Assay: DLK TR-FRET inhibition assay
Type: biochemical
Settings: 5 nM GST-DLK, 40 nM HIS-MKK4 K131M substrate, 30 μM ATP, 60 minutes at ambient temperature
In short: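 5 nM GST-DLK (aa 1-520), 40 nM HIS-MKK4 K131M and 30 μM ATP reacted 60 min at ambient temperature in HEPES pH 7.5 buffer with 10 mM MgCl2, compound 1:3 serially diluted from 20 uM. TR-FRET detection of phospho-MKK4 used Eu-cryptate anti-phospho-MKK4 plus D2 anti-HIS, read after 3 h (665/615 nm).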

Compound | Ki [nM]
CC(C)n1nc(-c2cnc(N)c(C(F)(F)F)c2)cc1[C@H]1[C@@H]2C[C@H](N3CC(F)(F)C3)C[C@@H]21 [compound 54, 5-(5-((1R,3r,5S,6r)-3-(3,3-difluoro-azetidin-1-yl)bicyclo[3.1.0]hexan-6-yl)-1-isopropyl-1H-pyrazol-3-yl)-3-(trifluoromethyl) pyridin-2-amine] | 7.68
CC(C)n1nc(-c2cnc(N)c(C(F)(F)F)c2)cc1[C@H]1[C@@H]2C[C@H](N3C[C@H]4C[C@@H]3CO4)C[C@@H]21 [compound 55, 5-(5-((1R,3r,5S,6R)-3-((1R,4R)-2-oxa-5-azabicyclo[2.2.1]heptan-5-yl)bicyclo[3.1.0]hexan-6-yl)-1-isopropyl-1H-pyrazol-3-yl)-3-(trifluoromethyl)pyridin-2-amine] | 5.4
CC(C)n1nc(-c2cnc(N)c(OC(F)(F)F)c2)cc1[C@H]1[C@@H]2C[C@H](N3C[C@H]4C[C@@H]3CO4)C[C@@H]21 [compound 56, 5-(5-((1R,3r,5S,6R)-3-((1R,4R)-2-oxa-5-azabicyclo[2.2.1]heptan-5-yl)bicyclo[3.1.0]hexan-6-yl)-1-isopropyl-1H-pyrazol-3-yl)-3-(trifluoromethoxy)pyridin-2-amine] | 4.81
CC(C)n1nc(-c2cnc(N)c(OC(F)(F)F)c2)cc1[C@H]1[C@@H]2C[C@H](N3CC4(COC4)C3)C[C@@H]21 [compound 57, 5-(5-((1R,3r,5S,6r)-3-(2-oxa-6-azaspiro[3.3]heptan-6-yl)bicyclo [3.1.0]hexan-6-yl)-1-isopropyl-1H-pyrazol-3-yl)-3-(trifluoro-methoxy)pyridin-2-amine] | 1.88
CC(C)n1nc(-c2cnc(N)c(OC(F)(F)F)c2)cc1[C@H]1[C@@H]2C[C@@H](N3CC4(COC4)C3)C[C@@H]21 [compound 58, 5-(5-((1R,3s,5S,6r)-3-(2-oxa-6-azaspiro[3.3]heptan-6-yl)bicyclo [3.1.0]hexan-6-yl)-1-isopropyl-1H-pyrazol-3-yl)-3-(trifluoromethoxy)pyridin-2-amine] | 1.86
CC(C)n1nc(-c2cnc(N)c(C(F)(F)F)c2)cc1[C@H]1[C@@H]2C[C@H](N3CCOC3=O)C[C@@H]21 [compound 59, 3-((1R,3r,5S,6r)-6-(3-(6-amino-5-(trifluoromethyl)pyridin-3-yl)-1-isopropyl-1H-pyrazol-5-yl)bicyclo[3.1.0]hexan-3-yl) oxazolidin-2-one] | 3.06
COC1CN([C@H]2C[C@@H]3[C@H](C2)[C@H]3c2cc(-c3cnc(N)c(OC(F)F)c3)nn2C(C)C)C1 [compound 61, 3-(difluoromethoxy)-5-(1-isopropyl-5-((1R,3r,5S,6r)-3-(3-methoxy-azetidin-1-yl)bicyclo[3.1.0]hexan-6-yl)-1H-pyrazol-3-yl) pyridin-2-amine] | 3.05
COC1CN([C@@H]2C[C@@H]3[C@H](C2)[C@H]3c2cc(-c3cnc(N)c(OC(F)F)c3)nn2C(C)C)C1 [compound 62, 3-(difIuoromethoxy)-5-(1-isopropyl-5-((1R,3s,5S,6r)-3-(3-methoxy-azetidin-1-yl)bicyclo[3.1.0]hexan-6-yl)-1H-pyrazol-3-yl) pyridin-2-amine] | 2.73
CC(C)n1nc(-c2cnc(N)c(C(F)(F)F)c2)cc1[C@H]1[C@@H]2C[C@H](N3CCN(C)CC3)C[C@@H]21 [compound 63, 5-(1-isopropyl-5-((1R,3r,5S,6r)-3-(4-methylpiperazin-1-yl)bicyclo [3.1.0]hexan-6-yl)-1H-pyrazol-3-yl)-3-(trifluoromethyl)pyridin-2-amine] | 2.21
CC(C)n1nc(-c2cnc(N)c(OC(F)(F)F)c2)cc1[C@H]1[C@@H]2C[C@H](N3CCN(C)CC3)C[C@@H]21 [compound 64, 5-(1-isopropyl-5-((1R,3r,5S,6r)-3-(4-methylpiperazin-1-yl)bicyclo [3.1.0]hexan-6-yl)-1H-pyrazol-3-yl)-3-(trifluoromethoxy) pyridin-2-amine] | 0.763
CC(C)n1nc(-c2cnc(N)c(C(F)(F)F)c2)cc1[C@H]1[C@@H]2C[C@H](N3CC4(COC4)C3)C[C@@H]21 [compound 65, 5-(5-((1R,3r,5S,6r)-3-(2-oxa-6-azaspiro[3.3]heptan-6-yl)bicyclo [3.1.0]hexan-6-yl)-1-isopropyl-1H-pyrazol-3-yl)-3-(trifluoro-methyl)pyridin-2-amine] | 1.13
CC(C)n1nc(-c2cnc(N)c(OC(F)(F)F)c2)cc1[C@H]1[C@@H]2C[C@@H](N3CCN(C)CC3)C[C@@H]21 [compound 66, 5-(1-isopropyl-5-((1R,3s,5S,6r)-3-(4-methylpiperazin-1-yl)bicyclo [3.1.0]hexan-6-yl)-1H-pyrazol-3-yl)-3-(trifluoromethoxy) pyridin-2-amine] | 2.26
CC(C)n1nc(-c2cnc(N)c(C(F)(F)F)c2)cc1[C@H]1[C@@H]2C[C@@H](N3CCN(C)CC3)C[C@@H]21 [compound 67, 5-(1-isopropyl-5-((1R,3s,5S,6r)-3-(4-methylpiperazin-1-yl)bicyclo [3.1.0]hexan-6-yl)-1H-pyrazol-3-yl)-3-(trifluoromethyl)pyridin-2-amine] | 3.93
CC(C)n1nc(-c2cnc(N)c(OC(F)(F)F)c2)cc1[C@H]1[C@@H]2C[C@@H](N3CCOCC3)C[C@@H]21 [compound 68, 5-(1-isopropyl-5-((1R,3s,5S,6r)-3-morpholinobicyclo[3.1.0]hexan-6-yl)-1H-pyrazol-3-yl)-3-(trifluoromethoxy)pyridin-2-amine] | 1.2
CC(C)n1nc(-c2cnc(N)c(OC(F)(F)F)c2)cc1[C@H]1[C@@H]2C[C@H](N3CCOCC3)C[C@@H]21 [compound 69, 5-(1-isopropyl-5-((1R,3r,5S,6r)-3-morpholinobicyclo[3.1.0]hexan-6-yl)-1H-pyrazol-3-yl)-3-(trifluoromethoxy)pyridin-2-amine] | 2.97
CC(C)n1nc(-c2cnc(N)c(C(F)(F)F)c2)cc1[C@H]1[C@@H]2C[C@H](N3CC(C#N)C3)C[C@@H]21 [compound 70, 1-((1R,3r,5S,6r)-6-(3-(6-amino-5-(trifIuoromethyl)pyridin-3-yl)-1-isopropyl-1H-pyrazol-5-yl)bicyclo[3.1.0]hexan-3-yl)azetidine-3-carbonitrile] | 2.9
CC(C)n1nc(-c2cnc(N)c(OC(F)(F)F)c2)cc1[C@H]1[C@@H]2C[C@H](N3C[C@@H]4C[C@H]3CO4)C[C@@H]21 [compound 71, 5-(5-((1R,3r,5S,6S)-3-((1S,4S)-2-oxa-5-azabicyclo[2.2.1]heptan-5-yl)bicyclo[3.1.0]hexan-6-yl)-1-isopropyl-1H-pyrazol-3-yl)-3-(trifluoromethoxy)pyridin-2-amine] | 3.62
CC(C)n1nc(-c2cnc(N)c(C(F)(F)F)c2)cc1[C@H]1[C@@H]2C[C@H](N3C[C@@H]4C[C@H]3CO4)C[C@@H]21 [compound 72, 5-(5-((1R,3r,5S,6S)-3-((1S,4S)-2-oxa-5-azabicyclo[2.2.1]heptan-5-yl)bicyclo[3.1.0]hexan-6-yl)-1-isopropyl-1H-pyrazol-3-yl)-3-(trifluoromethyl)pyridin-2-amine] | 3.48
COC1CCN([C@H]2C[C@@H]3[C@H](C2)[C@H]3c2cc(-c3cnc(N)c(OC(F)F)c3)nn2C(C)C)C1 (stereo partly drawn) [compound 73, 3-(difluoromethoxy)-5-(1-isopropyl-5-((lR,3r,5S,6r)-3-(3-methoxy-pyrrolidin-1-yl)bicyclo[3.1.0]hexan-6-yl)-1H-pyrazol-3-yl) pyridin-2-amine] | 1.81
